Tested on: HUVEC/MSC spheroids viability
Assay: Human HUVEC/MSC cell line growth inhibition [KRAS2];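 on viability, T/C: percent of DMSO vehicle control luminescence so 100% = untreated viability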
Conditions: for IC50: curve of first compound; for viability, T/C: stronger effect = lower value
In short: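 Stroma-only multicellular spheroids, formed from HUVEC and human MSCs at passages </=5, received RAS-pathway inhibitors with or without a second targeted drug. Dosing followed half-log dilutions from clinically achievable levels.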

[1] = second compound 0.0316 µM, first compound 0.0316 µM
[2] = second compound 0.0316 µM, first compound 0.1 µM
[3] = second compound 0.0316 µM, first compound 0.316 µM
[4] = second compound 0.0316 µM, first compound 1 µM
[5] = second compound 0.0316 µM, first compound 3.16 µM
[6] = second compound 0.0316 µM, first compound 10 µM
[7] = second compound 0.1 µM, first compound 0.0316 µM
[8] = second compound 0.1 µM, first compound 0.1 µM
[9] = second compound 0.1 µM, first compound 0.316 µM
[10] = second compound 0.1 µM, first compound 1 µM
[11] = second compound 0.1 µM, first compound 3.16 µM
[12] = second compound 0.1 µM, first compound 10 µM
[13] = second compound 0.316 µM, first compound 0.0316 µM
[14] = second compound 0.316 µM, first compound 0.1 µM
[15] = second compound 0.316 µM, first compound 0.316 µM
[16] = second compound 0.316 µM, first compound 1 µM
[17] = second compound 0.316 µM, first compound 3.16 µM
[18] = second compound 0.316 µM, first compound 10 µM
[19] = second compound 1 µM, first compound 0.0316 µM
[20] = second compound 1 µM, first compound 0.1 µM
[21] = second compound 1 µM, first compound 0.316 µM
[22] = second compound 1 µM, first compound 1 µM
[23] = second compound 1 µM, first compound 3.16 µM
[24] = second compound 1 µM, first compound 10 µM
[25] = second compound 3.16 µM, first compound 0.0316 µM
[26] = second compound 3.16 µM, first compound 0.1 µM
[27] = second compound 3.16 µM, first compound 0.316 µM
[28] = second compound 3.16 µM, first compound 1 µM
[29] = second compound 3.16 µM, first compound 3.16 µM
[30] = second compound 3.16 µM, first compound 10 µM
[31] = second compound 10 µM, first compound 0.0316 µM
[32] = second compound 10 µM, first compound 0.1 µM
[33] = second compound 10 µM, first compound 0.316 µM
[34] = second compound 10 µM, first compound 1 µM
[35] = second compound 10 µM, first compound 3.16 µM
[36] = second compound 10 µM, first compound 10 µM

For `CC(=O)Nc1cccc(-n2c(=O)n(C3CC3)c(=O)c3c(Nc4ccc(I)cc4F)n(C)c(=O)c(C)c32)c1` + CC1OCC2(CCN(c3cnc(Sc4ccnc(N)c4Cl)c(N)n3)CC2)C1N, the IC50 (second compound 0.0316 µM) was 18.1 nM, the IC50 (second compound 0.1 µM) was 15.9 nM and the IC50 (second compound 0.316 µM) was 16.2 nM. For the same compound, the IC50 (second compound 1 µM) was 5.18 nM, the IC50 (second compound 3.16 µM) was 1.27 nM and the IC50 (second compound 10 µM) was < 0.0949 nM. For the same compound, the viability, T/C (second compound 0.0316 µM, first compound 94.9 pM) was 110%, the viability, T/C (second compound 0.0316 µM, first compound 0.0003 µM) was 142% and the viability, T/C (second compound 0.0316 µM, first compound 0.000949 µM) was 113%. The viability, T/C (second compound 0.0316 µM, first compound 0.003 µM) was 118%, the viability, T/C (second compound 0.0316 µM, first compound 0.00949 µM) was 82.6% and the viability, T/C (second compound 0.0316 µM, first compound 0.03 µM) was 24.4%. The viability, T/C (second compound 0.1 µM, first compound 94.9 pM) was 118%, the viability, T/C (second compound 0.1 µM, first compound 0.0003 µM) was 106% and the viability, T/C (second compound 0.1 µM, first compound 0.000949 µM) was 104%. The viability, T/C (second compound 0.1 µM, first compound 0.003 µM) was 89.2%, the viability, T/C (second compound 0.1 µM, first compound 0.00949 µM) was 77.5% and the viability, T/C (second compound 0.1 µM, first compound 0.03 µM) was 21.9%. It also gave a viability, T/C (second compound 0.316 µM, first compound 94.9 pM) of 92.7%, a viability, T/C (second compound 0.316 µM, first compound 0.0003 µM) of 95.2% and a viability, T/C (second compound 0.316 µM, first compound 0.000949 µM) of 87.9%. For the same compound, the viability, T/C (second compound 0.316 µM, first compound 0.003 µM) was 81.8%, the viability, T/C (second compound 0.316 µM, first compound 0.00949 µM) was 74.5% and the viability, T/C (second compound 0.316 µM, first compound 0.03 µM) was 24.3%. The viability, T/C (second compound 1 µM, first compound 94.9 pM) was 85.6%, the viability, T/C (second compound 1 µM, first compound 0.0003 µM) was 75.1% and the viability, T/C (second compound 1 µM, first compound 0.000949 µM) was 69.1%. For the same compound, the viability, T/C (second compound 1 µM, first compound 0.003 µM) was 55.7%, the viability, T/C (second compound 1 µM, first compound 0.00949 µM) was 46% and the viability, T/C (second compound 1 µM, first compound 0.03 µM) was 10.9%. The viability, T/C (second compound 3.16 µM, first compound 94.9 pM) was 71.2%, the viability, T/C (second compound 3.16 µM, first compound 0.0003 µM) was 69.5% and the viability, T/C (second compound 3.16 µM, first compound 0.000949 µM) was 49.7%. For the same compound, the viability, T/C (second compound 3.16 µM, first compound 0.003 µM) was 39.9%, the viability, T/C (second compound 3.16 µM, first compound 0.00949 µM) was 22.7% and the viability, T/C (second compound 3.16 µM, first compound 0.03 µM) was 3.47%. For the same compound, the viability, T/C (second compound 10 µM, first compound 94.9 pM) was 48.7%, the viability, T/C (second compound 10 µM, first compound 0.0003 µM) was 39% and the viability, T/C (second compound 10 µM, first compound 0.000949 µM) was 33.3%. It also gave a viability, T/C (second compound 10 µM, first compound 0.003 µM) of 12.5%, a viability, T/C (second compound 10 µM, first compound 0.00949 µM) of 5.14% and a viability, T/C (second compound 10 µM, first compound 0.03 µM) of 0.77%.
With `COC(=O)c1ccc2c(C(=Nc3ccc(N(C)C(=O)CN4CCN(C)CC4)cc3)c3ccccc3)c(O)[nH]c2c1` + CC1OCC2(CCN(c3cnc(Sc4ccnc(N)c4Cl)c(N)n3)CC2)C1N the IC50 (second compound 0.0316 µM) was 1550 nM, the IC50 (second compound 0.1 µM) was 1180 nM and the IC50 (second compound 0.316 µM) was 620 nM. For the same compound, the IC50 (second compound 1 µM) was 623 nM, the IC50 (second compound 3.16 µM) was 528 nM and the IC50 (second compound 10 µM) was 353 nM. For the same compound, the viability, T/C [1] was 112%, the viability, T/C [2] was 111% and the viability, T/C [3] was 89.7%. The viability, T/C [4] was 52.6%, the viability, T/C [5] was 38.8% and the viability, T/C [6] was 2.26%. The viability, T/C [7] was 94.1%, the viability, T/C [8] was 106% and the viability, T/C [9] was 77%. It also gave a viability, T/C [10] of 47.8%, a viability, T/C [11] of 32% and a viability, T/C [12] of 0.33%. For the same compound, the viability, T/C [13] was 108%, the viability, T/C [14] was 82% and the viability, T/C [15] was 73.4%. It also gave a viability, T/C [16] of 34.9%, a viability, T/C [17] of 16.6% and a viability, T/C [18] of 1.89%. The viability, T/C [19] was 74.3%, the viability, T/C [20] was 72.8% and the viability, T/C [21] was 74.2%. For the same compound, the viability, T/C [22] was 33.4%, the viability, T/C [23] was 0.59% and the viability, T/C [24] was 0.29%. The viability, T/C [25] was 69.4%, the viability, T/C [26] was 73.3% and the viability, T/C [27] was 64.5%. It also gave a viability, T/C [28] of 30.9%, a viability, T/C [29] of 0.39% and a viability, T/C [30] of 0.29%. It also gave a viability, T/C [31] of 63.5%, a viability, T/C [32] of 61.1% and a viability, T/C [33] of 53.8%. The viability, T/C [34] was 14.7%, the viability, T/C [35] was 0.37% and the viability, T/C [36] was 0.38%.
`CC1(C)CCC(CN2CCN(c3ccc(C(=O)NS(=O)(=O)c4ccc(NCC5CCOCC5)c([N+](=O)[O-])c4)c(Oc4cnc5[nH]ccc5c4)c3)CC2)=C(c2ccc(Cl)cc2)C1` + CNCc1ccccc1-c1csc(C(C)Nc2nc(C)nc3cc(OC)c(OC)cc23)c1 showed an IC50 (second compound 0.0316 µM) of 4270 nM, an IC50 (second compound 0.1 µM) of 4110 nM and an IC50 (second compound 0.316 µM) of 4040 nM. The IC50 (second compound 1 µM) was 4920 nM, the IC50 (second compound 3.16 µM) was 5270 nM and the IC50 (second compound 10 µM) was < 31.6 nM. The viability, T/C [1] was 101%, the viability, T/C [2] was 111% and the viability, T/C [3] was 101%. For the same compound, the viability, T/C [4] was 94.2%, the viability, T/C [5] was 67.1% and the viability, T/C [6] was 1.69%. The viability, T/C [7] was 87.2%, the viability, T/C [8] was 106% and the viability, T/C [9] was 93.7%. It also gave a viability, T/C [10] of 87%, a viability, T/C [11] of 63.2% and a viability, T/C [12] of 5.65%. It also gave a viability, T/C [13] of 79.8%, a viability, T/C [14] of 76.3% and a viability, T/C [15] of 97.8%. It also gave a viability, T/C [16] of 104%, a viability, T/C [17] of 62.8% and a viability, T/C [18] of 2.84%. The viability, T/C [19] was 75.4%, the viability, T/C [20] was 73.7% and the viability, T/C [21] was 90.9%. It also gave a viability, T/C [22] of 76.6%, a viability, T/C [23] of 80.2% and a viability, T/C [24] of 2.99%. For the same compound, the viability, T/C [25] was 78.3%, the viability, T/C [26] was 99.6% and the viability, T/C [27] was 82%. For the same compound, the viability, T/C [28] was 92.2%, the viability, T/C [29] was 95.9% and the viability, T/C [30] was 0.31%. It also gave a viability, T/C [31] of 0.33%, a viability, T/C [32] of 0.35% and a viability, T/C [33] of 0.51%. The viability, T/C [34] was 0.51%, the viability, T/C [35] was 0.36% and the viability, T/C [36] was 0.57%.
